Assay results taken from patent US20080108641A1, “Compounds for treating inflammatory disorders, demyelinating disdorders and cancers” (priority 2006, published 2008).
pEC50, pIC50: −log10 of the molar value. Like-named read-outs stand apart in the source and are kept apart here.

What was measured:
FLT3 = molecular target: T1, FLT3 (Homo sapiens, UniProt P36888); assay: SelectScreen kinase assay against FLT3; assay type: biochemical; details: ATP at 100 micromolar; for inhibition at 1 µM: 1000 nMolar, read-out: E1000 (percent inhibition at 1000 nMolar)
T1 construct: purchased Invitrogen, Inc. (SelectScreen platform)
T1 sequence (P36888 27-993): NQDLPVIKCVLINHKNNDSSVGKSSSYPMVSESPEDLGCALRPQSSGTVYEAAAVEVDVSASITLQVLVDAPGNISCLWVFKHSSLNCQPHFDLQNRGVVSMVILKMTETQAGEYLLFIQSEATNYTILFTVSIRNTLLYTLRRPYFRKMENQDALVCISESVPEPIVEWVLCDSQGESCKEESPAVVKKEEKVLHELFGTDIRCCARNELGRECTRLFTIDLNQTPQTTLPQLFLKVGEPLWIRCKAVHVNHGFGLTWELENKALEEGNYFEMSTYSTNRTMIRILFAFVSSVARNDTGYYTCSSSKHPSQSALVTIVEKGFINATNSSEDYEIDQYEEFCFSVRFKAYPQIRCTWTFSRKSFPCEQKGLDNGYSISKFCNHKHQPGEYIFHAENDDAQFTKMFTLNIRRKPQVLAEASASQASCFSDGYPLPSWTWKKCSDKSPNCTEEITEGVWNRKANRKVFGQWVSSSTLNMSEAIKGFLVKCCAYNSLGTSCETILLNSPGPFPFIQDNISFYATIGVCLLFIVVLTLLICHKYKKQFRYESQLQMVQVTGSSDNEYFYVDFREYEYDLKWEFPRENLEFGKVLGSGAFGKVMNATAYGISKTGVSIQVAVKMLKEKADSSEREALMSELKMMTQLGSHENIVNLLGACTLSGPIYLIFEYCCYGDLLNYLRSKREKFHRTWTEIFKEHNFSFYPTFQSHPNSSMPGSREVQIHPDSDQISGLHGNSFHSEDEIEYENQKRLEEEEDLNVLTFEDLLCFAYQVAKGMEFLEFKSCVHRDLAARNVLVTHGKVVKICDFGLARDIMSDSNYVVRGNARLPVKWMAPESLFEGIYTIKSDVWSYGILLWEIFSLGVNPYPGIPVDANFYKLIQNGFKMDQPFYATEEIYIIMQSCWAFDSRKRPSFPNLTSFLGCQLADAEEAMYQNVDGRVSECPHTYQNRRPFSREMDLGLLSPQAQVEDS
Method: The terms “IC50” and “EC50” are used interchangeably. As used herein, “EC50” refers to nMolar concentration at median percent inhibition determined by dose respose (DR) assay. As used herein, the term “E1000” refers to percent inhibition at 1000 nMolar determined by assay. EC50 was calculated based on dose response curve was fitted to 4 parameter Hill equation.
Testing of the compounds described in this invention was carried out using the SelectScreen™ platform from Invitrogen, Inc. (Carlsbad, Calif., USA) and the details of its performance are readily viewed via the web by linking to: http://www.invitrogen.com/downloads/SelectScrn_Brochure.pdf.
Briefly the approach is based on treating each specific kinase with a unique substrate and optical reporter system in the presence of ATP at 100 micromolar. In controls, the substrate is phosphorylated and a baseline optimal response is recorded.
The compounds were then re-tested by adding graded amounts of putative inhibitor which were added in 5 separate increments to generate a dose response curve. The latter is obtained by fitting to a 4 parameter Hill equation, a sigmoid saturation equation.
For the compounds of this invention, the experimental condition were as follows. The 2×FLT3/Tyr 02 peptide mixture was prepared in 50 mM HEPES pH 7.5, 0.01 BRIJ-35, 10 mM MgCl2, 1 mM EGTA. The final 10 uL kinase reaction consists of 0.6-76.0 ng FLT3 and 2 uM Tyr 02 peptide in 50 mM HEPES pH 7.5, 0.01% BRIJ-35, […], 1 mM EGTA. After 1 hour kinase reaction incubation, 5 uL of a 1:64 dilution of development reagent A was added.
EC50 and E1000 values for selected compounds of formula (IB) were measured according to the protocol described above in Example 9.

[1] = test system: arthritis induced by monoclonal antibodies raised against type II collagen, plus LPS; details: Lange et al., 2005; cited from earlier work
IL-4 = assay: Mediator release, IL-4 (Con A-stimulated PBML, sandwich ELISA); assay type: cell-based; details: Homo sapiens, read-out: % Growth Inhibition
Method: (§1) In this experiment, test compound and/or vehicle were preincubated with human peripheral blood mononuclear leukocyte (PBML, 1×10^6/ml) in RPMI buffer pH 7.4 for 2 hours. Concanavalin A (Con A, 20 μg/ml) was then added to stimulate the cells overnight in 5% CO2 at 37° C. IL-4 and IL-10 cytokine levels in the conditioned medium were then quantified using a sandwich ELISA kit. Compounds were screened at 10, 1, 0.1, 0.01 and 0.001 μM.

IL-10 = assay: Mediator release, IL-10 (Con A-stimulated PBML, sandwich ELISA); assay type: cell-based; details: Homo sapiens, read-out: % inhibition of IL-10 release, read-out: % Growth Inhibition
Method: as §1

[2] = test system: B-lymphocyte cells isolated from the spleen; assay: Cell proliferation, B-Cell + LPS ([3H]thymidine incorporation); assay type: cell-based, balb/c mice; details: Mus musculus, read-out: % Growth Inhibition
Method: B-lymphocyte cells isolated from the spleen of balb/c mice weighing 17±1 g were used. Test compound and/or vehicle were incubated with the cells (1.5×10^6/ml) in the presence of 10 μg/ml lipopolysaccharide (LPS) in AIM-V medium pH 7.4 at 37° C. for 24 hours. [^3H]Thymidine (120 nM) was then added for an additional overnight incubation period. Thymidine incorporation was assessed by liquid scintillation counting.
(§2) Test compound-induced suppression of cell proliferation by 50 percent or more (≧50%) relative to vehicle control response indicates significant inhibitory activity.

[3] = test system: T-lymphocyte cells isolated from thymus; assay: Cell proliferation, T-Cell + Con A ([3H]thymidine incorporation); assay type: cell-based, balb/c mice; details: Mus musculus
Method: T-lymphocyte cells isolated from thymus of balb/c mice weighing 17±1 g were used. Test compound and/or vehicle is incubated with the cells (4×10^6/ml) in the presence of 3 μg/mL Concanavalin A (Con A) in AIM-V medium pH 7.4 at 37° C. for 24 hours. [^3H]Thymidine (120 nM) was then added for an additional overnight incubation period. Thymidine incorporation was assessed by liquid scintillation counting. Compounds were screened at 10, 1, 0.1, 0.01 and 0.001 μM.
as §2

[4] = test system: Experimental Autoimmune Encephalomyelitis (EAE); assay: Acute stage Experimental Autoimmune Encephalomyelitis (EAE) model, daily dosing
Method: Accordingly, three randomized cohorts of guinea pigs with EAE induced by the method of Example 2, were treated, respectively, with 6 mg/kg of Symadex™ (full salt hydrate) and 0.35 mg/kg of mitoxantrone. Animals were treated daily, by intraperitoneal injection, for 15 days, starting on day 7 post immunization. Controls were treated with vehicle. We reasoned that 15 consecutive, 6 mg/kg doses of Symadex™ would represent a level of drug exposure that would be commensurate with the “20 mg/kg every 72 hours” regimen in Example 4 and consistent with a mid level exposure between the 20 mg/kg and the 40 mg/kg schedule given weekly, in Example 2. The mitoxantrone dose was selected to reflect a typical high dose given to rats or mice by daily dosing in the prior art, but allometrically scaled to the guinea pig.

Question: What does the source list for `CN(C)CCCCCNc1ccc2ncn3c4ccc5[nH]ncc5c4c(=O)c1c23` [(IIIA)]?
Answer: inhibition at 1 µM (FLT3; indazoles): 96%; pEC50 (FLT3; indazoles): 7.80

Question: With `CN(C)CCCNc1ccc2ncn3c4ccc5[nH]ncc5c4c(=O)c1c23` [(IVA)] as the compound, how does the pEC50 (FLT3; indazoles) read?
Answer: Its pEC50 is 8.05.

Question: With `CN(C)CCNc1ccc2ncn3c4ccc(OC(=O)OC(C)(C)C)cc4c(=O)c1c23` [(VB)] as the compound, how does the inhibition at 1 µM (FLT3; esters of formula (IB)) read?
Answer: The inhibition at 1 µM was 92%.

Question: And the pEC50 (FLT3; esters of formula (IB))?
Answer: Its pEC50 is 7.02.

Question: Which results are given for `O=c1c2c(NCCN3CCOCC3)ccc3ncn(c4ccc5[nH]ncc5c14)c32` [Compound (VA)]?
Answer: inhibition at 1 µM (FLT3; indazoles): 87%; pEC50 (FLT3; indazoles): 7.49

Question: For `CCN(CC)CCNc1ccc2ncn3c4ccc(OC(C)=O)cc4c(=O)c1c23` [Compound (VIB), Acetic acid 5-(2-diethylamino-ethylamino)-6-oxo-6H-2,10b-diaza-aceanthrylen-8-yl ester], which inhibition at 1 µM (FLT3; esters of formula (IB)) is on record?
Answer: Its inhibition at 1 µM is 64%.

Question: And the pEC50 (FLT3; esters of formula (IB))?
Answer: Its pEC50 is 6.33.

Question: Which “benefit in antibody induced arthritis models” value [1] does the source give for `CN(Cc1cnc2nc(N)nc(N)c2n1)c1ccc(C(=O)N[C@@H](CCC(=O)O)C(=O)O)cc1` [Methotrexate] here?
Answer: Its value is “diminishing benefit”.

Question: Which inhibition at 0.001 µM (IL-4; 1 nM) does the source give for `O=C1c2c(O)ccc(O)c2C(=O)c2c(NCCNCCO)ccc(NCCNCCO)c21` [Mitoxantrone, reference compound] here?
Answer: Its inhibition at 0.001 µM is 11%.

Question: And the inhibition at 0.01 µM (IL-4; 10 nM)?
Answer: The inhibition at 0.01 µM was 13%.

Question: And the inhibition at 0.1 µM (IL-4; 0.1 μM)?
Answer: Its inhibition at 0.1 µM is 18%.

Question: What about the inhibition at 1 µM (IL-4; 1 μM) of the same compound?
Answer: Its inhibition at 1 µM is -4%.

Question: And the inhibition at 10 µM (IL-4; 10 μM)?
Answer: The inhibition at 10 µM was 108%.

Question: What about the inhibition at 0.001 µM (IL-10; 1 nM) of the same compound?
Answer: The inhibition at 0.001 µM was 2%.

Question: And the inhibition at 0.01 µM (IL-10; 10 nM)?
Answer: The inhibition at 0.01 µM was 1%.

Question: What about the inhibition at 0.1 µM (IL-10; 0.1 μM) of the same compound?
Answer: Its inhibition at 0.1 µM is 5%.

Question: What about the inhibition at 1 µM (IL-10; 1 μM) of the same compound?
Answer: The inhibition at 1 µM was 60%.

Question: And the inhibition at 10 µM (IL-10; 10 μM)?
Answer: Its inhibition at 10 µM is 102%.

Question: What about the inhibition at 0.001 µM ([2]; 1 nM) of the same compound?
Answer: Its inhibition at 0.001 µM is 18%.

Question: And the inhibition at 0.01 µM ([2]; 10 nM)?
Answer: Its inhibition at 0.01 µM is 54%.

Question: And the inhibition at 0.1 µM ([2]; 0.1 μM)?
Answer: The inhibition at 0.1 µM was 93%.

Question: And the inhibition at 1 µM ([2]; 1 μM)?
Answer: Its inhibition at 1 µM is 102%.

Question: And the inhibition at 10 µM ([2]; 10 μM)?
Answer: The inhibition at 10 µM was 102%.

Question: And the inhibition at 0.001 µM ([3]; 1 nM, read-out: % Growth Inhibition)?
Answer: The inhibition at 0.001 µM was -1%.

Question: And the inhibition at 0.01 µM ([3]; 10 nM, read-out: % Growth Inhibition)?
Answer: Its inhibition at 0.01 µM is 19%.

Question: What about the inhibition at 0.1 µM ([3]; 0.1 μM, read-out: % Growth Inhibition) of the same compound?
Answer: Its inhibition at 0.1 µM is 80%.

Question: What about the inhibition at 1 µM ([3]; 1 μM, read-out: % Growth Inhibition) of the same compound?
Answer: Its inhibition at 1 µM is 103%.

Question: And the inhibition at 10 µM ([3]; 10 μM, read-out: % Growth Inhibition)?
Answer: Its inhibition at 10 µM is 103%.

Question: What about the pIC50 ([3]; T-Cell + Con A proliferation, read-out: IC50) of the same compound?
Answer: The pIC50 was 7.49.

Question: What about the “clinical score course (neurological impairment)” value ([4]; daily i.p. for 15 days from day 7 post immunization, Symadex 6 mg/kg, mitoxantrone 0.35 mg/kg) of the same compound?
Answer: The value was “initial rise in neurological impairment is arrested”.

Question: What about the “statistical significance of therapeutic effect on clinical score vs control (Mann-Whitney rank-sum)” value ([4]; daily i.p. for 15 days, Symadex 6 mg/kg (p below 0.05), mitoxantrone 0.35 mg/kg) of the same compound?
Answer: Its value is “did not reach statistical significance”.

Question: And the weight gain profile ([4]; daily i.p. for 15 days, Symadex 6 mg/kg, mitoxantrone 0.35 mg/kg, Symadex vs mitoxantrone p 0.034)?
Answer: Its weight gain profile is “impairs weight gain”.

Question: What about the “pathology score: meningeal inflammation (M) vs control” value ([4]; necropsy after 15 daily doses) of the same compound?
Answer: Its value is “statistically significant reduction”.

Question: And the “pathology scores: perivascular cuffing (P), myelitis (E) and demyelination (D) vs control” value ([4]; necropsy after 15 daily doses, p value<0.05 from control)?
Answer: Its value is “reducing the perivascular cuffing (P), myelitis (E) and demyelination (D)”.
